Data taken from US20190284220A1, “CRYSTAL FORM OF DAPAGLIFLOZIN INTERMEDIATE AND PREPARATION METHOD THEREFOR” (Jiangsu Hansoh Pharmaceutical Group Co., Ltd., priority 2016, published 2019).

Test: Stability study of crystal form A
Assay type: physicochemical
Settings: for Crystal form / Purity: 25° C.
From the text: Experimental Example 1 Stability Study

Crystal form (0 day): Crystal form A | Purity (0 day): 99.45% | Crystal form (1 month): Crystal form A | Purity (1 month): 99.41% | Crystal form (3 months): Crystal form A | Purity (3 months): 99.43% | Crystal form after drying (dried under vacuum at 50° C. for 3 hours): not changed | Crystal form after storage (room temperature (25° C.), 3 months): not changed
SMILES: CCOc1ccc(Cc2cc([C@]3(OCC)O[C@H](CO)[C@@H](O)[C@H](O)[C@H]3O)ccc2Cl)cc1 [crystal form A, (2S,3R,4S,5S,6R)-2-(4-chloro-3-(4-ethoxybenzyl)phenyl)-2-ethoxy-6-(methylhydroxy)tetrahydro-2H-pyran-3,4,5-triol]
